In brackets after ≈: the same amount, converted by molar mass. Read-outs that look alike come from different tables or passages of the source.
Legend:
[1] = tested on: Saccharomyces cerevisiae IFO 0209; experiment: Antimicrobial spectrum, agar dilution method (in vitro); assay type: cell-based; conditions: IFO0209, medium A, 28 °C, 40 hr, read-out: Minimal inhibitory concentration
[2] = tested on: fungi of late blight of tomato; assay type: in vivo; conditions: tomato plants in pots, 4 days, nontreated group taken as 100%
[3] = tested on: Proteus vulgaris IFO 3045; experiment: Antimicrobial spectrum, agar dilution method (in vitro); assay type: cell-based; conditions: IFO3045, medium B, 37 °C, 20 hr, read-out: Minimal inhibitory concentration
Text: (§1) B 0.5% of Ehrlich's meat extract, 0.5% of polypeptone, 0.5% of NaCl, 1.5%

[4] = tested on: Escherichia coli IFO 12734; experiment: as above; assay type: cell-based; conditions: IFO12734, medium B, 37 °C, 20 hr, read-out: Minimal inhibitory concentration
Text: as §1

[5] = tested on: Bacillus subtilis IFO 3513; experiment: as above; assay type: cell-based; conditions: IFO3513, medium B, 37 °C, 20 hr, read-out: Minimal inhibitory concentration
Text: as §1

[6] = tested on: Mycobacterium smegmatis ATCC 607; experiment: as above; assay type: cell-based; conditions: Mycolicibacterium smegmatis, ATCC607; medium C, 37 °C, 40 hr; read-out: Minimal inhibitory concentration
Text: (§2) C 3.0% of glycerin, 0.5% of Ehrlich's meat extract, 0.5% of NaCl, 1.5% of […]

[7] = tested on: Mycobacterium phlei IFO 3158; experiment: as above; assay type: cell-based; conditions: Mycolicibacterium phlei, IFO3158; medium C, 37 °C, 40 hr; read-out: Minimal inhibitory concentration
Text: as §2

[8] = tested on: Sclerotinia sclerotiorum IFO 9395; experiment: as above; assay type: cell-based; conditions: IFO9395, medium A, 28 °C, 40 hr, read-out: Minimal inhibitory concentration
[9] = tested on: Guignardia laricina IFO 7886; experiment: as above; assay type: cell-based; conditions: Neofusicoccum laricinum, IFO7886; medium A, 28 °C, 88 hr; read-out: Minimal inhibitory concentration
[10] = tested on: Rhodotorula rubra IFO 0870; experiment: as above; assay type: cell-based; conditions: IFO0870, medium A, 28 °C, 40 hr, read-out: Minimal inhibitory concentration
in vivo = conditions: mouse
[11] = tested on: Cochlioborus miyabeanus IFO 5277; experiment: Antimicrobial spectrum, agar dilution method (in vitro); conditions: 40 h, read-out: Minimal inhibitory concentration
powdery mildew of barley = experiment: Controlling effect against powdery mildew of barley (method of Iwasa et al.); assay type: in vivo; conditions: in words
Text: The controlling effect against powdery mildew of barley was investigated according to the method of Iwasa, et. al. (The Journal of Antibiotics, vol. 31, No. 6, pp. 512, 1978).

Solubilities = assay type: physicochemical; conditions: free base
[12] = tested on: Penicillium chrysogenum IFO 4626; experiment: Antimicrobial spectrum, agar dilution method (in vitro); assay type: cell-based; conditions: IFO4626, medium A, 28 °C, 40 hr, read-out: Minimal inhibitory concentration
Totranychus urticae = experiment: Miticidal effect on kidney bean seedlings; assay type: in vivo; conditions: 500 ppm, 28 °C, 20 ml per pot
Method: The test on the miticidal effect was carried out. The seedlings (5 days after germination) of kidney bean grown in pots (9 cm in diameter) were inoculated on their main leaves with about 50 female adults of Totranychus urticae, and the test chemical solution was sprayed in 20 ml quantities per pot by means of a spray gun. After spraying, the pots were placed in a phytotron (28° C.), and a number of surving mites on leaves was investigated at the 5th and 7th day to determine a decrease rate against a number of mites immediately before spraying [=(number of mites tested-number of surving mites)/(number of mites tested)×100].

some bacteria = experiment: Antimicrobial spectrum, agar dilution method (in vitro), summary in words; assay type: cell-based

With `N=C(N)NCC(O)CC(O)(C(=O)O)C1OC(n2ccc(N)nc2=O)C=CC1NC(=O)C(N)CO` (stereo not shown) [Example 2] the MIC [1] was 100 µg/mL (≈ 206 µM), the “Percent area of lesions” value ([2]; 150 ppm) was 55% and the “Percent area of lesions” value ([2]; 200 ppm) was 0%. For the same compound, the “Percent area of lesions” value ([2]; 250 ppm) was 0%, the “Percent area of lesions” value ([2]; 300 ppm) was 0% and the “Percent area of lesions” value ([2]; 500 ppm) was 0%. For the same compound, the MIC [3] was greater than 500 µg/mL, the MIC [4] was 250 µg/mL (≈ 516 µM) and the MIC [5] was 250 µg/mL (≈ 516 µM). For the same compound, the MIC [6] was 100 µg/mL (≈ 206 µM), the MIC [7] was 50 µg/mL (≈ 103 µM) and the MIC [8] was 250 µg/mL (≈ 516 µM). For the same compound, the MIC [9] was 250 µg/mL (≈ 516 µM), the MIC [10] was less than 10 µg/mL and the LD50 (in vivo; ip) was greater than 200 mg/kg. For the same compound, the LD50 (in vivo; iv) was greater than 100 mg/kg, the LD50 (in vivo; sc) was greater than 200 mg/kg and the MIC [11] was 100 µg/mL (≈ 206 µM). For the same compound, the “controlling effect against powdery mildew of barley” value (“controlling effect” for short) (powdery mildew of barley) was “greatly effective”, the “solubility in organic solvents” value (Solubilities) was “less soluble” and the solubility in water (Solubilities) was “Easily soluble”. The MIC [12] was 250 µg/mL (≈ 516 µM), the “Decrease rate against number of mites immediately before spraying, 5th day” value (shortened to “Decrease rate against number … 5th day”) (Totranychus urticae) was 100 and the “Decrease rate against number of mites immediately before spraying, 7th day” value (shortened to “Decrease rate against number … 7th day”) (Totranychus urticae) was 100.

With `N=C(N)NCC(O)CC(O)(C(=O)O)C1OC(n2cc(F)c(N)nc2=O)C=CC1NC(=O)C(N)CO` (stereo not shown) [Example 7] the MIC [1] was 100 µg/mL (≈ 199 µM), the “Percent area of lesions” value ([2]; 150 ppm) was 100% and the “Percent area of lesions” value ([2]; 200 ppm) was 16%. The “Percent area of lesions” value ([2]; 250 ppm) was 0%, the “Percent area of lesions” value ([2]; 300 ppm) was 0% and the “Percent area of lesions” value ([2]; 500 ppm) was 0%. For the same compound, the MIC [3] was greater than 500 µg/mL, the MIC [4] was 250 µg/mL (≈ 498 µM) and the MIC [5] was 250 µg/mL (≈ 498 µM). For the same compound, the MIC [6] was 100 µg/mL (≈ 199 µM), the MIC [7] was 25 µg/mL (≈ 49.8 µM) and the MIC [8] was 250 µg/mL (≈ 498 µM). The MIC [9] was 250 µg/mL (≈ 498 µM), the MIC [10] was less than 10 µg/mL and the LD50 (in vivo; ip) was greater than 200 mg/kg. The LD50 (in vivo; iv) was greater than 100 mg/kg, the LD50 (in vivo; sc) was greater than 200 mg/kg and the MIC [11] was 100 µg/mL (≈ 199 µM). For the same compound, the “controlling effect” value (powdery mildew of barley) was “greatly effective”, the “solubility in organic solvents” value (Solubilities) was “less soluble” and the solubility in water (Solubilities) was “Easily soluble”. For the same compound, the MIC [12] was 250 µg/mL (≈ 498 µM), the “Decrease rate against number … 5th day” value (Totranychus urticae) was 100 and the “Decrease rate against number … 7th day” value (Totranychus urticae) was 100.

With `Cc1cn(C2C=CC(NC(=O)C(N)CO)C(C(O)(CC(O)CNC(=N)N)C(=O)O)O2)c(=O)nc1N` (stereo not shown) [Example 6] the MIC [1] was 100 µg/mL (≈ 201 µM), the “Percent area of lesions” value ([2]; 150 ppm) was 100% and the “Percent area of lesions” value ([2]; 200 ppm) was 17%. The “Percent area of lesions” value ([2]; 250 ppm) was 0%, the “Percent area of lesions” value ([2]; 300 ppm) was 0% and the “Percent area of lesions” value ([2]; 500 ppm) was 0%. It also gave an MIC [3] greater than 500 µg/mL, an MIC [4] of 250 µg/mL (≈ 502 µM) and an MIC [5] of 250 µg/mL (≈ 502 µM). The MIC [6] was 100 µg/mL (≈ 201 µM), the MIC [7] was 50 µg/mL (≈ 100 µM) and the MIC [8] was 250 µg/mL (≈ 502 µM). For the same compound, the MIC [9] was 250 µg/mL (≈ 502 µM), the MIC [10] was less than 10 µg/mL and the LD50 (in vivo; ip) was greater than 200 mg/kg. For the same compound, the LD50 (in vivo; iv) was greater than 100 mg/kg, the LD50 (in vivo; sc) was greater than 200 mg/kg and the MIC [11] was 100 µg/mL (≈ 201 µM). For the same compound, the “controlling effect” value (powdery mildew of barley) was “greatly effective”, the “solubility in organic solvents” value (Solubilities) was “less soluble” and the solubility in water (Solubilities) was “Easily soluble”. The MIC [12] was 250 µg/mL (≈ 502 µM), the “Decrease rate against number … 5th day” value (Totranychus urticae) was 100 and the “Decrease rate against number … 7th day” value (Totranychus urticae) was 100.

With `N=C(N)NCC(O)CC(O)(C(=O)O)C1OC(n2cc(Br)c(N)nc2=O)C=CC1NC(=O)C(N)CO` (stereo not shown) [Example 5] the MIC [1] was 100 µg/mL (≈ 178 µM), the “Percent area of lesions” value ([2]; 150 ppm) was 100% and the “Percent area of lesions” value ([2]; 200 ppm) was 11%. For the same compound, the “Percent area of lesions” value ([2]; 250 ppm) was 0%, the “Percent area of lesions” value ([2]; 300 ppm) was 0% and the “Percent area of lesions” value ([2]; 500 ppm) was 0%. It also gave an MIC [3] of 250 µg/mL (≈ 444 µM), an MIC [4] of 100 µg/mL (≈ 178 µM) and an MIC [5] of 250 µg/mL (≈ 444 µM). For the same compound, the MIC [6] was 25 µg/mL (≈ 44.4 µM), the MIC [7] was 25 µg/mL (≈ 44.4 µM) and the MIC [8] was 500 µg/mL (≈ 888 µM). For the same compound, the “antimicrobial activity against some bacteria” value (some bacteria) was “remarkably strong antimicrobial activity”, the MIC [9] was 250 µg/mL (≈ 444 µM) and the MIC [10] was less than 10 µg/mL. For the same compound, the LD50 (in vivo; ip) was greater than 200 mg/kg, the LD50 (in vivo; iv) was greater than 100 mg/kg and the LD50 (in vivo; sc) was greater than 200 mg/kg. The MIC [11] was 100 µg/mL (≈ 178 µM), the “controlling effect” value (powdery mildew of barley) was “greatly effective” and the “solubility in organic solvents” value (Solubilities) was “less soluble”. The solubility in water (Solubilities) was “Easily soluble”, the MIC [12] was 250 µg/mL (≈ 444 µM) and the “Decrease rate against number … 5th day” value (Totranychus urticae) was 100. The “Decrease rate against number … 7th day” value (Totranychus urticae) was 100.
